For assay [1], the target named is T1, BRD4 (BD1) (Homo sapiens, UniProt O60885).
T1 construct: purchased Reaction Biology Company RD-11-157
Description: BRD4 (BD1) binding assay (HTRF). The conditions noted are these: BRD4 (D1) with GST tag and biotin-labeled acetylated peptide. As to the method: The BRD4 (BD1) biochemical binding assay was carried out by Sundia MediTech Co., Ltd. • Materials and suppliers: • BRD4(D1): Reaction Biology Company; catalog #: RD-11-157; batch #1319 • Positive control compound: AZD5153; Selleck, catalog #, S8344, batch #, 1 • Peptide: GL China; catalog #329934; batch #, P171229-JQ329934 • DMSO: Sigma; catalog #, D8418-1L; batch #, SHBG3288V • OptiPlate-384: PerkinElmer; catalog #6007270, batch #, 8240-17211 • Instruments: • Centrifuge (manufacturer: Eppendorf, model: 5430) • Microplate reader (manufacturer: Perkin Elmer, model: EnVision) • Sonic pipetting system (manufacturer: Labcyte, model: Echo® 550) • In the assay, the HTRF method uses an anti-GST antibody with a cryptate chelate-labeled europium element as the donor, and the d2 or XL665-labeled streptavidin (having high affinity with biotin) as the acceptor to study the interaction between BRD4 (D1) with GST tag and biotin-labeled acetylated peptide. When the donor and acceptor are close to each other due to the binding of BRD4 (D1) to the biotin-labeled peptide, the excitation of the donor triggers fluorescence resonance energy transfer (FRET) to the acceptor, which then emits fluorescence at a specific wavelength (665 nm). • General assay procedure: 20 nL of compound solution was transferred to the 384-well plate by Labcyte Echo® 550 liquid handler, and 5 μL of BRD4 (BD1) solution from Reaction Biology Company, RD-11-157, or the assay buffer was added to each well. After centrifuge for 1 minute and incubating 15 minutes at rt, the 5 μL peptide (GL China, Catalog #329934, Batch, P171229-JQ329934) was added to each well. After centrifuge for 1 minute at 1000 rpm, 10 μL detect solution was added to each well. After incubating for 60 minutes, centrifuging 1 minute, the signals were measured by Microplate reader. Data analysis: The inhibition percentage in the presence of the compound was calculated based on the following formula:
% Inhibition=(Signal_max−Signal sample/Signal_max−Signal_min)×100
Fitting the data in GrphaPad Prism V5.0 software with log(inhibitor) vs. response-Variable slope, the IC50 was obtained.

Assay [2] relates to MV-4-11. Description: Cell proliferation assay (Cell Titer-Glo). The class given is cell-based. To be noted: MV-4-11 cells, compound treatment 72 h, CellTiter-Glo. As to the method: In order to evaluate the activity of the compound on cells, the Cell Titer-Glo assay was used for detection. The cells were incubated in a 37° C. incubator and treated with compounds for 72 hours. At the end of the reaction, the number of living cells in the culture is measured by quantitative determination of ATP. ATP is an indicator of the metabolism of living cells. With Cell Titer-Glo, the luminescence signal produced by cell lysis is proportional to the amount of ATP present, and the amount of ATP is directly proportional to the number of cells in the culture. These signal ratios reflect the cell activity of the compound at that concentration in the well under this condition. • (1) Seeding cells • Trypsinize cells and count cell density with the automated cell counter. • Dilute cell suspension to required density according to seeding density. • Seed 100 ul cells into 96-well plate in growth medium according to the plate map. Medium only is used as background control (Min). • Incubate at 37° C., 5% CO2 overnight. • (2) Compound treatment • Make 200× compound solution in DMSO. • Dilute compounds with growth medium to 3× final concentration by addition of 3 ul 200× compounds to 197 ul growth medium. • Add 50 ul diluted compounds to cells and incubate at 37° C., 5% CO2 for 72 h. • (3) Measurement • Equilibrate the assay plate to room temperature prior to measurement. • Add 40 ul of CellTiter-Glo® Reagent into each well. • Mix contents for 2 minutes on an orbital shaker to induce cell lysis. • Incubate at room temperature for 60 minutes to stabilize luminescent signal. • Record luminescence on Envision. • (4) Data analysis • (1) Using GraphPad Prism 5. • (2) % Inh=(Max signal−Compound signal)/(Max signal−Min signal)×100. • (3) Max signal was obtained from the action of DMSO. • (4) Min signal was obtained from the action of medium only.

Consider `Cc1nnn(C)c1-c1cnc2c3nn(C)c(C(C)(C)O)c3n(C(c3ccccc3)C3CCOCC3)c2c1` (racemic) [Example 2, 2-(6-(1,4-Dimethyl-1H-1,2,3-triazol-5-yl)-2-methyl-4-(phenyl(tetrahydro-2H-pyran-4-yl)methyl)-2,4-dihydropyrazolo[3′,4′:4,5]pyrrolo[3,2-b]pyridin-3-yl)propan-2-ol], for which the IC50 in assay [1] came out at 0.3 nM; in assay [2] (Homo sapiens, MV4-11, 72 h) it was 1.48 nM.
In the case of `Cc1nnn(C)c1-c1cnc2c3nn(C)c(C(C)(C)O)c3n(C(c3ccccn3)C3CCOCC3)c2c1` (racemic) [Example 6], the IC50 in assay [1] turned out to be 0.61 nM; in assay [2] (Homo sapiens, MV4-11, 72 h) it was 1.98 nM.
On to `Cc1nnn(C)c1-c1cnc2c3nn(C)c(C(C)(C)O)c3n(C(c3ncccc3F)C3CCOCC3)c2c1` (racemic) [Example 10, 2-(6-(1,4-Dimethyl-1H-1,2,3-triazol-5-yl)-4-((3-fluoropyridin-2-yl)(tetrahydro-2H-pyran-4-yl)methyl)-2-methyl-2,4-dihydropyrazolo[3′,4′:4,5]pyrrolo[3,2-b]pyridin-3-yl)propan-2-ol], for which the IC50 in assay [1] was 0.61 nM; in assay [2] (Homo sapiens, MV4-11, 72 h) it was 3.42 nM.
Take `[2H]C([2H])([2H])n1nc2c3ncc(-c4c(C)nnn4C)cc3n(C(c3ncccc3F)C3CCOCC3)c2c1C(C)(C)O` (racemic) [Example 14, 2-(6-(1,4-Dimethyl-1H-1,2,3-triazol-5-yl)-4-((3-fluoropyridin-2-yl)(tetrahydro-2H-pyran-4-yl)methyl)-2-(methyl-d3)-2,4-dihydropyrazolo[3′,4′:4,5]pyrrolo[3,2-b]pyridin-3-yl)propan-2-ol]: the IC50 was determined as 0.53 nM in assay [1] and 1.77 nM in assay [2].
On to `[2H]C([2H])([2H])c1nnn(C)c1-c1cnc2c3nn(C)c(C(C)(C)O)c3n(C(c3ncccc3F)C3CCOCC3)c2c1` (racemic) [Example 18, 2-(4-((3-Fluoropyridin-2-yl)(tetrahydro-2H-pyran-4-yl)methyl)-2-methyl-6-(1-methyl-4-(methyl-d3)-1H-1,2,3-triazol-5-yl)-2,4-dihydropyrazolo[3′,4′:4,5]pyrrolo[3,2-b]pyridin-3-yl)propan-2-ol], for which the IC50 stood at 0.52 nM in assay [1] and 1.94 nM in assay [2].
For `[2H]C([2H])([2H])c1nnn(C)c1-c1cnc2c3nn(C([2H])([2H])[2H])c(C(C)(C)O)c3n(C(c3ncccc3F)C3CCOCC3)c2c1` (racemic) [Example 22, 2-(4-((3-Fluoropyridin-2-yl)(tetrahydro-2H-pyran-4-yl)methyl)-2-(methyl-d3)-6-(1-methyl-4-(methyl-d3)-1H-1,2,3-triazol-5-yl)-2,4-dihydropyrazolo[3′,4′:4,5]pyrrolo[3,2-b]pyridin-3-yl)propan-2-ol], in that order: 0.34 nM and 1.4 nM.
With `Cc1nnn(C)c1-c1cnc2c3nn(C)c(C(C)(C)O)c3n(C(c3ccccc3)C3CCOCC3)c2c1` (single isomer, unassigned) [Example 3, 2-(6-(1,4-Dimethyl-1H-1,2,3-triazol-5-yl)-2-methyl-4-(phenyl(tetrahydro-2H-pyran-4-yl)methyl)-2,4-dihydropyrazolo[3′,4′:4,5]pyrrolo[3,2-b]pyridin-3-yl)propan-2-ol], the values for the IC50 in assay [1] and in assay [2] were 1.8 nM and 36.9 nM, respectively.
For `Cc1nnn(C)c1-c1cnc2c3nn(C)c(C(C)(C)O)c3n(C(c3ccccc3)C3CCOCC3)c2c1` (single isomer, unassigned) [Example 4, 2-(6-(1,4-Dimethyl-1H-1,2,3-triazol-5-yl)-2-methyl-4-(phenyl(tetrahydro-2H-pyran-4-yl)methyl)-2,4-dihydropyrazolo[3′,4′:4,5]pyrrolo[3,2-b]pyridin-3-yl)propan-2-ol], in that order: 0.18 nM and 1.28 nM.
Consider `Cc1nnn(C)c1-c1cnc2c3nn(C)c(C(C)(C)O)c3n(C(c3ncccc3F)C3CCOCC3)c2c1` (single isomer, unassigned) [Example 11, 2-(6-(1,4-Dimethyl-1H-1,2,3-triazol-5-yl)-4-((3-fluoropyridin-2-yl)(tetrahydro-2H-pyran-4-yl)methyl)-2-methyl-2,4-dihydropyrazolo[3′,4′:4,5]pyrrolo[3,2-b]pyridin-3-yl)propan-2-ol], for which the IC50 was 6.8 nM in assay [1] and 63.3 nM in assay [2].
For `Cc1nnn(C)c1-c1cnc2c3nn(C)c(C(C)(C)O)c3n(C(c3ncccc3F)C3CCOCC3)c2c1` (single isomer, unassigned) [Example 12, 2-(6-(1,4-Dimethyl-1H-1,2,3-triazol-5-yl)-4-((3-fluoropyridin-2-yl)(tetrahydro-2H-pyran-4-yl)methyl)-2-methyl-2,4-dihydropyrazolo[3′,4′:4,5]pyrrolo[3,2-b]pyridin-3-yl)propan-2-ol], in that order: 0.19 nM and 0.52 nM.
For `[2H]C([2H])([2H])n1nc2c3ncc(-c4c(C)nnn4C)cc3n(C(c3ncccc3F)C3CCOCC3)c2c1C(C)(C)O` (single isomer, unassigned) [Example 15, 2-(6-(1,4-Dimethyl-1H-1,2,3-triazol-5-yl)-4-((3-fluoropyridin-2-yl)(tetrahydro-2H-pyran-4-yl)methyl)-2-(methyl-d3)-2,4-dihydropyrazolo[3′,4′:4,5]pyrrolo[3,2-b]pyridin-3-yl)propan-2-ol], in that order: 4.8 nM and 72.2 nM.
For `[2H]C([2H])([2H])n1nc2c3ncc(-c4c(C)nnn4C)cc3n(C(c3ncccc3F)C3CCOCC3)c2c1C(C)(C)O` (single isomer, unassigned) [Example 16, 2-(6-(1,4-Dimethyl-1H-1,2,3-triazol-5-yl)-4-((3-fluoropyridin-2-yl)(tetrahydro-2H-pyran-4-yl)methyl)-2-(methyl-d3)-2,4-dihydropyrazolo[3′,4′:4,5]pyrrolo[3,2-b]pyridin-3-yl)propan-2-ol], in that order: 0.18 nM and 0.49 nM.
Take `[2H]C([2H])([2H])c1nnn(C)c1-c1cnc2c3nn(C)c(C(C)(C)O)c3n(C(c3ncccc3F)C3CCOCC3)c2c1` (single isomer, unassigned) [Example 19, 2-(4-((3-Fluoropyridin-2-yl)(tetrahydro-2H-pyran-4-yl)methyl)-2-methyl-6-(1-methyl-4-(methyl-d3)-1H-1,2,3-triazol-5-yl)-2,4-dihydropyrazolo[3′,4′:4,5]pyrrolo[3,2-b]pyridin-3-yl)propan-2-ol]: the IC50 in assay [1] is 5 nM; in assay [2] it was 85.3 nM.
The corresponding values for `[2H]C([2H])([2H])c1nnn(C)c1-c1cnc2c3nn(C)c(C(C)(C)O)c3n(C(c3ncccc3F)C3CCOCC3)c2c1` (single isomer, unassigned) [Example 20, 2-(4-((3-Fluoropyridin-2-yl)(tetrahydro-2H-pyran-4-yl)methyl)-2-methyl-6-(1-methyl-4-(methyl-d3)-1H-1,2,3-triazol-5-yl)-2,4-dihydropyrazolo[3′,4′:4,5]pyrrolo[3,2-b]pyridin-3-yl)propan-2-ol] are 0.17 nM and 0.81 nM.

Source of the values: patent publication US20240124455A1, “TRICYCLIC COMPOUNDS AS ANTICANCER AGENTS” (JINGRUI BIOPHARMA CO., LTD., priority 2021, published 2024).
